SMILES strings stand for the structures.

The target in one series is VEGFR-1 (Homo sapiens, UniProt P17948). The settings on record: for VEGFR-1 inhibition, fold less active than the standard 21: relative to standard 21.
Another series deals with EGFR (Homo sapiens, UniProt P00533). The following applies: for EGFR inhibition, fold less potent than the standard 20: relative to standard 20 (PD153035).
The target in a further series is PDGFR-β (Homo sapiens, UniProt P09619). The settings on record: for PDGFRβ inhibition, fold less active than the standard 22: relative to standard 22 (AG1295).
For another series, the target named is VEGFR-2 (Homo sapiens, UniProt P35968). The following applies: for VEGFR-2 inhibition, fold less active than the standard 23: relative to standard 23.
Series [1] relates to COLO-205 tumor xenografts. Description: COLO-205 human metastatic colon mouse xenograft. Type of series: in vivo. The settings on record: athymic mice, 11a 35 mg/kg, 8 10 mg/kg, three times weekly, IP. (In general: Xenograft models place foreign cells or tissue in a host animal.)
For series [2] the following is noted: mice; 35 mg/kg of 11a, 10 mg/kg of 8.

Sequence of VEGFR-1 (P17948 27-1338): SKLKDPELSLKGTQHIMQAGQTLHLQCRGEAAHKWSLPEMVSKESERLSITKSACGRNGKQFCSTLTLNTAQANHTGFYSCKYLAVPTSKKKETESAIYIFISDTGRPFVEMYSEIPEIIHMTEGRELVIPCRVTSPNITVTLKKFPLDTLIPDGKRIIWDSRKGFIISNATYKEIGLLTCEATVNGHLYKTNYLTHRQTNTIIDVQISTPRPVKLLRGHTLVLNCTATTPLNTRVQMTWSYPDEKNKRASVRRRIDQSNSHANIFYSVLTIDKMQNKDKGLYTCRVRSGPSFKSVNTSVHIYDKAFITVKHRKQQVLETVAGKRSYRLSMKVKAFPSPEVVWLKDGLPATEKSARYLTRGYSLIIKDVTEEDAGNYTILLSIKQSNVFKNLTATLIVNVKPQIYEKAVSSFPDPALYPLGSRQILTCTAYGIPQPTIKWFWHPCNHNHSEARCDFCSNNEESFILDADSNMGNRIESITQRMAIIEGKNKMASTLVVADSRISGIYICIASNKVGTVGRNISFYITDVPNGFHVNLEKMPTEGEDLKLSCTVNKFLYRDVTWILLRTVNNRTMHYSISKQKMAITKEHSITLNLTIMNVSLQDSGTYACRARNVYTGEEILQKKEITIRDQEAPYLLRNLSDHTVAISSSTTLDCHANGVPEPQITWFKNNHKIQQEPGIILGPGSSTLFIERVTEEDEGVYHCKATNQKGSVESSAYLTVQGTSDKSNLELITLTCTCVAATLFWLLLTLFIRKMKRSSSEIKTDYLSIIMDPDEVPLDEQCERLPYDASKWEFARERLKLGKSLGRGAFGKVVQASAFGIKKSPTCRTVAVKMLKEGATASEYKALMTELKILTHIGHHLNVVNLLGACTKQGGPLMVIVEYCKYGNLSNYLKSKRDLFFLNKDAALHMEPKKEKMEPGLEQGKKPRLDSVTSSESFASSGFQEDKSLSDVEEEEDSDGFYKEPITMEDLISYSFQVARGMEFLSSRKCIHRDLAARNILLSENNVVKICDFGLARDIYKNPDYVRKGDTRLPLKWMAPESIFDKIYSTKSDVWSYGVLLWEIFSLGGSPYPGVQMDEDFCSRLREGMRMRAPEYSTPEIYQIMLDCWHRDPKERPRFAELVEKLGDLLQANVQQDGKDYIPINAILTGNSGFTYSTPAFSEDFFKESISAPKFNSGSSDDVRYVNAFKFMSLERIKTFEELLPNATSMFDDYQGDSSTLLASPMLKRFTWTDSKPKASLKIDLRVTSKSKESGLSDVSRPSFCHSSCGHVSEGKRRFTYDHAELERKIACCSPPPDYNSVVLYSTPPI
Sequence of VEGFR-2 (P35968 20-1356): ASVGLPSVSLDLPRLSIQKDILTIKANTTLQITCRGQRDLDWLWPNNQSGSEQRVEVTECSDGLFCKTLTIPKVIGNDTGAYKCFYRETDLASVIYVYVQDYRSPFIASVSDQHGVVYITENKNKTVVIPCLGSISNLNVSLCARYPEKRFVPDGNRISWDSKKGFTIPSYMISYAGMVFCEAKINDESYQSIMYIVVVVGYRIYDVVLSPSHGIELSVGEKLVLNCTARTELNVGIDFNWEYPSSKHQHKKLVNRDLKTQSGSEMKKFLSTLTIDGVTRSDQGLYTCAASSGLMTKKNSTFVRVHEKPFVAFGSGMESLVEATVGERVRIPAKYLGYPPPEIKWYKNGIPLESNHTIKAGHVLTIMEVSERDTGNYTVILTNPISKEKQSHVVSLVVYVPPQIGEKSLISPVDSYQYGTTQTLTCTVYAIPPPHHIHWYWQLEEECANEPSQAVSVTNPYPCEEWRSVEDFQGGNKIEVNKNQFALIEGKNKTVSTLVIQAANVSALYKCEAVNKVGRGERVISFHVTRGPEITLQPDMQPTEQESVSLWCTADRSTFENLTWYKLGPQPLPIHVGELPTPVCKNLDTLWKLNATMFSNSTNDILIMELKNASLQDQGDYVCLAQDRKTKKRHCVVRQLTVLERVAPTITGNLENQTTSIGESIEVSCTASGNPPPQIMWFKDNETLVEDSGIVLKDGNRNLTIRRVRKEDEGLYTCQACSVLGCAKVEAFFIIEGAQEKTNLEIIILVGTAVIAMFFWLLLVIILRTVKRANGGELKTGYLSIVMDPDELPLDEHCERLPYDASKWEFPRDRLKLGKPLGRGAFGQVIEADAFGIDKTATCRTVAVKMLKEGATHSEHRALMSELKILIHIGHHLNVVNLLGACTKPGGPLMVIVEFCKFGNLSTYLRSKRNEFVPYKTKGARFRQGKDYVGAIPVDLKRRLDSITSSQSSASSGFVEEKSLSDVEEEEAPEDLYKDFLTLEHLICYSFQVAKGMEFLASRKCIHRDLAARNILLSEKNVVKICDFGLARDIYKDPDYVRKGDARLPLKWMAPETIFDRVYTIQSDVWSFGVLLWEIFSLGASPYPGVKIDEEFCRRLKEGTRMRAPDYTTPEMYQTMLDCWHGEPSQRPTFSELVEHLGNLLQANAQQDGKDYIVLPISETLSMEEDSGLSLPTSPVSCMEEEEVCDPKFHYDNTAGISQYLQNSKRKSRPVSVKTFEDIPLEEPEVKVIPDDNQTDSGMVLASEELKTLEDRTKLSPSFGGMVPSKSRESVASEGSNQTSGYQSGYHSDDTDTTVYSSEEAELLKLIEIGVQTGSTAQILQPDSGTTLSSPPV
Sequence of PDGFR-β (P09619 33-1106): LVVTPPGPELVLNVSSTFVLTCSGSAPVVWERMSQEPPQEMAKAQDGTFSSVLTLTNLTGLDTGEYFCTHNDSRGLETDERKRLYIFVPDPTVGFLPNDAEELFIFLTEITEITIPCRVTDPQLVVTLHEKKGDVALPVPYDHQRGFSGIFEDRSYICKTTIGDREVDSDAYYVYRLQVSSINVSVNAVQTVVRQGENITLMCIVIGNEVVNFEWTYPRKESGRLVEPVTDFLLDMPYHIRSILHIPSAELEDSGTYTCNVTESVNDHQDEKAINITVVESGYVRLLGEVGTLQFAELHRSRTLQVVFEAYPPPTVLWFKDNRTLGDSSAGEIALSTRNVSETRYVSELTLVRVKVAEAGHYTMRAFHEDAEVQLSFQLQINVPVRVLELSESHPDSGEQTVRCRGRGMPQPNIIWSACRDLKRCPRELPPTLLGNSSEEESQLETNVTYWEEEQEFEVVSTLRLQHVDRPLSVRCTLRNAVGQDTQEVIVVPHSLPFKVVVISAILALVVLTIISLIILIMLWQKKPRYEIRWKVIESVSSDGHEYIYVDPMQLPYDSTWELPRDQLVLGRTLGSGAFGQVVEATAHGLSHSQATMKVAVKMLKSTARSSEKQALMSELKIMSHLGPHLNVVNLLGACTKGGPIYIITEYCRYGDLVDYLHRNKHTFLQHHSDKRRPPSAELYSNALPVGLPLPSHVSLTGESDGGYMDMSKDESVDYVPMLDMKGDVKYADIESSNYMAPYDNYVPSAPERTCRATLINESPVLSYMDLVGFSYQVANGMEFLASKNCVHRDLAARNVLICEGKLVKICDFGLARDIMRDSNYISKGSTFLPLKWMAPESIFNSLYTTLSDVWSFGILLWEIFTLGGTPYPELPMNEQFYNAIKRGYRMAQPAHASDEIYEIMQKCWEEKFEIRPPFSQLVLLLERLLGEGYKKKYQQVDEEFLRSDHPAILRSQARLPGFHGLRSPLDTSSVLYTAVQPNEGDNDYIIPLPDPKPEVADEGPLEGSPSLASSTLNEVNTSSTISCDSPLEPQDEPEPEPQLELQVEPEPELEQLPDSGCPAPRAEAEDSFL
Sequence of EGFR (P00533 25-1210): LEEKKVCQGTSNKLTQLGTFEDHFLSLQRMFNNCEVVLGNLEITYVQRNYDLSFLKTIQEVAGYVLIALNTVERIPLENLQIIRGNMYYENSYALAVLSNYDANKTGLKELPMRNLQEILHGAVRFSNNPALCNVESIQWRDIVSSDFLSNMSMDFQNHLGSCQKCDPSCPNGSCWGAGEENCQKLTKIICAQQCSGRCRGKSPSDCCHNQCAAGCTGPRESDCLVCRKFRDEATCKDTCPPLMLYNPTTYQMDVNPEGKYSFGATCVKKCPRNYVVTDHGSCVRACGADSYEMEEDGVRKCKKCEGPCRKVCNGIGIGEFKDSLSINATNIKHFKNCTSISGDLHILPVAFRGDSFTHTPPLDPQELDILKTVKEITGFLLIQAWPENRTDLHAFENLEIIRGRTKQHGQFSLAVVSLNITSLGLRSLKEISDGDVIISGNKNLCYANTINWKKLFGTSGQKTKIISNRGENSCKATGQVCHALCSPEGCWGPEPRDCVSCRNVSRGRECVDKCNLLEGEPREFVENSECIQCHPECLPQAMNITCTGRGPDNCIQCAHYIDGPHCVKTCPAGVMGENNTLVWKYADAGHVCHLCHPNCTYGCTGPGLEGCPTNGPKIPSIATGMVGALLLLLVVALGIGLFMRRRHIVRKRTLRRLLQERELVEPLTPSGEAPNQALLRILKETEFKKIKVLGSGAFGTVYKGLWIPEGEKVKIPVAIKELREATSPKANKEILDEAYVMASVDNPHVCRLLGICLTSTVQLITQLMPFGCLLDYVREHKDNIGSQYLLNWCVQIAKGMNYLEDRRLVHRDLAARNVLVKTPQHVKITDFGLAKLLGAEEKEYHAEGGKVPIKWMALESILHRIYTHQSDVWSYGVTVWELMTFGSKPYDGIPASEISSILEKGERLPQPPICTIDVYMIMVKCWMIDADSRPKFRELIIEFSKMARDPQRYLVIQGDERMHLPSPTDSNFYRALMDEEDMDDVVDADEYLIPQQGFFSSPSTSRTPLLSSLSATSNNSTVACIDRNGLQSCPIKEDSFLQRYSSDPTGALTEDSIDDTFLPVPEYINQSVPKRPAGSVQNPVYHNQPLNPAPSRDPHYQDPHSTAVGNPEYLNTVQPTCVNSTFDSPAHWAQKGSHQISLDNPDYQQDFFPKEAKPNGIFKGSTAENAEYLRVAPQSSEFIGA

On to `Nc1nc(Nc2cccc(Br)c2)c2ccn(Cc3ccc(-c4ccccc4)cc3)c2n1` [Compound 18a, 7-Biphenyl-4-ylmethyl-N^4-(3-bromo-phenyl)-7H-pyrrolo[2,3-d]pyrimidine-2,4-diamine], for which the “VEGFR-1 inhibition, result in words” value on VEGFR-1 is “inactive at a concentration of 200 μM”. Further, on EGFR, the “EGFR inhibition, result in words” value is “abolished”.

For the compound `Nc1nc(Nc2cccc(Br)c2)c2ccn(Cc3cccc4ccccc34)c2n1` [Compound 16a, N^4-(3-bromophenyl)-7-(1-naphthylmethyl)-7H-pyrrolo[2,3-d]pyrimidine-2,4-diamine], the “PDGFRβ inhibition, fold less active than the standard 22” value on PDGFR-β is given as 20 fold. The “VEGFR-2 inhibition, fold less active than parent regioisomer 16” value on VEGFR-2 (16a versus 16) is 3 fold. For the same compound, the “VEGFR-2 inhibition, fold less active than the standard 23” value on VEGFR-2 came to 1.4 fold. In addition, on VEGFR-1, the “VEGFR-1 inhibition, fold less active than the standard 21” value is 8.4 fold. The “EGFR inhibition, result in words” value at EGFR is listed as “abolished”.

As to `Nc1nc(Nc2cccc(Br)c2)c2ccn(Cc3ccccc3Cl)c2n1` [Compound 11a, N^4-(3-bromophenyl)-7-(2-chlorobenzyl)-7H-pyrrolo[2,3-d]pyrimidine-2,4-diamine], in series [1], the “numbers of COLO-205 metastases to the liver” value is “significantly reduced numbers”, the “primary tumor growth rate compared to the control” value is reported as “significant decreases” and the “primary tumor vascularity compared to control animals” value was “significant decrease”. Moreover, the “PDGFRβ inhibition, result in words” value on PDGFR-β is “single digit micromolar concentrations”. In addition, the “PDGFRβ inhibition, fold more active than parent regioisomer 11” value on PDGFR-β (relative to 6-substituted regioisomer 11) was above 33 fold. At VEGFR-2, the “VEGFR-2 inhibition, fold less active than the standard 23” value is 1.6 fold. Further, the “VEGFR-1 inhibition, fold less active than the standard 21” value on VEGFR-1 is 7 fold. Further, in series [2], the “toxicity in six week toxicity determination study” value is listed as “no overt toxicity”.

As for `Nc1nc(Nc2cccc(Br)c2)c2ccn(Cc3ccc(Cl)cc3Cl)c2n1` [Compound 14a, N^4-(3-bromophenyl)-7-(2,4-dichlorobenzyl)-7H-pyrrolo[2,3-d]pyrimidine-2,4-diamine], the “VEGFR-2 inhibition, result in words” value on VEGFR-2 was “inactive”. At EGFR, the “EGFR inhibition, result in words” value is “inactivity”.

For `Nc1nc(Nc2cccc(Br)c2)c2ccn(Cc3ccccc3)c2n1` [Compound 9a, 7-benzyl-N^4-(3-bromophenyl)-7H-pyrrolo[2,3-d]pyrimidine-2,4-diamine], the “VEGFR-2 inhibition, fold less active than the standard 23” value at VEGFR-2 is 2 fold. On VEGFR-1, the “VEGFR-1 inhibition, fold less active than the standard 21” value is reported as 5.6 fold. At EGFR, the “EGFR inhibition, fold less potent than the standard 20” value is listed as “about 800 fold”.

In the case of `Nc1nc(Nc2cccc(Br)c2)c2ccn(Cc3ccc(Cl)c(Cl)c3)c2n1` [Compound 15a, N^4-(3-bromophenyl)-7-(3,4-dichlorobenzyl)-7H-pyrrolo[2,3-d]pyrimidine-2,4-diamine], at VEGFR-2, the “VEGFR-2 inhibition, fold less active than the standard 23” value is 6 fold. Further, the “VEGFR-1 inhibition, fold less active than the standard 21” value on VEGFR-1 came out at 7 fold. Besides, the “EGFR inhibition, result in words” value on EGFR is “inactivity”.

As for `COc1ccc(OC)c(Cn2ccc3c(Nc4cccc(Br)c4)nc(N)nc32)c1` [Compound 13a, N^4-(3-bromophenyl)-7-(2,5-dimethoxybenzyl)-7H-pyrrolo[2,3-d]pyrimidine-2,4-diamine], the “VEGFR-2 inhibition, result in words” value on VEGFR-2 was “inactive even at 200 μM”. For the same compound, on EGFR, the “EGFR inhibition, result in words” value is recorded as 2-digit micromolar inhibition and the “EGFR inhibition, fold less potent than the standard 20” value amounted to 346 fold.

Take `Nc1nc(Nc2cccc(Br)c2)c2ccn(Cc3ccc4ccccc4c3)c2n1` [Compound 17a, N^4-(3-bromophenyl)-7-(2-naphthylmethyl)-7H-pyrrolo[2,3-d]pyrimidine-2,4-diamine]: the “PDGFRβ inhibition, fold less active than the standard 22” value at PDGFR-β is reported as 34 fold. In addition, the “VEGFR-2 inhibition, fold less active than the standard 23” value on VEGFR-2 is reported as 2 fold. The “VEGFR-1 inhibition, fold less active than the standard 21” value at VEGFR-1 is recorded as 2.8 fold. Moreover, the “EGFR inhibition, result in words” value at EGFR is “abolished”.

As to `Cc1[nH]c(/C=C2\C(=O)Nc3ccccc32)c(C)c1CCC(=O)O` [Compound 8, TSU-68, reference compound], in series [1], the “primary tumor growth rate compared to the control” value is given as “significant decreases” and the “primary tumor vascularity compared to control animals” value is reported as “significant decrease”. Besides, the “toxicity in six week toxicity determination study” value in series [2] is listed as “no overt toxicity”.

Take `COc1cc(Cn2ccc3c(Nc4cccc(Br)c4)nc(N)nc32)cc(OC)c1OC` [Compound 19a, N^4-(3-Bromo-phenyl)-7-(3,4,5-trimethoxy-benzyl)-7H-pyrrolo[2,3-d]pyrimidine-2,4-diamine]: the “PDGFRβ inhibition, result in words” value at PDGFR-β is listed as “single digit micromolar concentrations”. The “VEGFR-2 inhibition, fold less active than the standard 23” value at VEGFR-2 worked out at 2 fold. The “VEGFR-1 inhibition, fold less active than the standard 21” value at VEGFR-1 is “about 8.8 fold”. The “EGFR inhibition, result in words” value on EGFR is “inactivity”.

Source of the values: paper PMC3310894 (Bioorganic & medicinal chemistry, 2012).
